Literature values in patent US7632826B2, “Use of agonists of the glucocorticosteroid and/or mineralo-corticosteroid receptors, in particular corticosteroids for the treatment of addiction” (Curamentis Ltd., priority 1998, dated 2009).

CC(=O)NCCCS(=O)(=O)O [acamprosate]
Patients still abstinent (Austria (Whitworth et al., 1996), placebo 21%): 30% | Patients of the verum group still abstinent at end of study (German part of the study (Sass et al., 1996), after 48 weeks of treatment, placebo 20%): 42% | Addicted patients who did not achieve permanent abstinence despite treatment (average in Europe, placebo 85%): approximately 70%
